Data on 29 molecules can be found in ChEMBL document CHEMBL3879902, “Compounds and methods for kinase modulation, and indications thereof” (2012).

Series [1] in a line: Aqueous solubility of the compound in hepes buffer at pH 7.4. In kind it is physicochemical.
Series [2] can be described thus: Aqueous solubility of the compound in simulated intestinal fluid at pH 4.5. Type of series: ADME. To be noted: simulated gi fluid.
A short description of series [3]: Aqueous solubility of the compound in simulated gastric fluid at pH 1.5. In kind it is ADME. The conditions noted are these: simulated gi fluid.
A short description of series [4]: Aqueous solubility of the compound in simulated intestinal fluid at pH 6.8. Type of series: ADME. The conditions noted are these: simulated gi fluid.

Consider `COc1ccnc2[nH]cc(C(=O)c3c(F)ccc(NS(=O)(=O)c4cccc(F)c4)c3F)c12`, for which the solubility entry in series [1], in series [2], in series [3] and in series [4] was “Soluble” throughout.

As for `CCCS(=O)(=O)Nc1ccc(F)c(C(=O)c2c[nH]c3ncc(-c4ccc(OCCN5CCOCC5)nc4)cc23)c1F`, the solubility result in series [1] is recorded as “Insoluble”; in series [2], “Soluble”; in series [3], “Soluble”; in series [4], “Insoluble”.

In the case of `CCCS(=O)(=O)Nc1ccc(F)c(C(=O)c2c[nH]c3ncc(-c4ccc(OCCCN5CCOCC5)nc4)cc23)c1F`, the solubility result in series [1] was “Insoluble”; in series [2] it was “Soluble”; in series [3], “Soluble”; in series [4], “Insoluble”.

Regarding `COc1ncc(-c2cnc3[nH]cc(C(=O)c4c(F)ccc(NS(=O)(=O)c5cc(F)ccc5F)c4F)c3c2)cn1`, the solubility entry in series [1], in series [2], in series [3] and in series [4] was “Insoluble” in each case.

As for `CCCS(=O)(=O)Nc1ccc(F)c(C(=O)c2c[nH]c3ncc(-c4ccc(S(N)(=O)=O)cc4)cc23)c1F`, the solubility result in series [1], in series [2], in series [3] and in series [4] was “Insoluble” each time.

Take `COc1ccnc2[nH]cc(C(=O)c3c(F)ccc(NS(=O)(=O)c4cc(F)ccc4F)c3F)c12`: the solubility entry in series [1], in series [2], in series [3] and in series [4] was “Soluble” each time.

Turning to `CCCS(=O)(=O)Nc1ccc(F)c(C(=O)c2c[nH]c3ncc(-c4ccc(OC)nc4OC)cc23)c1F`, the solubility entry in series [1], in series [2], in series [3] and in series [4] was “Insoluble” in each case.

For the molecule `Cc1cnc2[nH]cc(C(=O)c3c(F)ccc(NS(=O)(=O)c4cccc(F)c4)c3F)c2c1`, the solubility entry is “Soluble” in series [1], “Insoluble” in series [2], “Soluble” in series [3] and “Soluble” in series [4].

For `N#Cc1cnc2[nH]cc(C(=O)c3c(F)ccc(NS(=O)(=O)c4ccccc4)c3F)c2c1`, the solubility result is given as “Soluble” in series [1], “Insoluble” in series [2], “Insoluble” in series [3] and “Soluble” in series [4].

For `N#Cc1cnc2[nH]cc(C(=O)c3cccc(NS(=O)(=O)c4cc(F)ccc4F)c3F)c2c1`, the solubility entry in series [1] was “Soluble”; in series [2], “Insoluble”; in series [3], “Insoluble”; in series [4] it was “Soluble”.

Regarding `CCCS(=O)(=O)Nc1ccc(F)c(C(=O)c2c[nH]c3ncc(-c4ccc(C(=O)NC5CC5)nc4)cc23)c1F`, the solubility result in series [1], in series [2], in series [3] and in series [4] was “Insoluble” throughout.

Consider `N#Cc1cnc2[nH]cc(C(=O)c3cccc(NS(=O)(=O)c4ccccc4F)c3F)c2c1`, for which the solubility result in series [1], in series [2], in series [3] and in series [4] was “Soluble” throughout.

`CCCS(=O)(=O)Nc1ccc(F)c(C(=O)c2c[nH]c3ncc(-c4ccc(S(=O)(=O)N5CCOCC5)cc4)cc23)c1F`: the solubility result in series [1], in series [2], in series [3] and in series [4] was “Insoluble” in each case.

For `CCCS(=O)(=O)Nc1ccc(F)c(C(=O)c2c[nH]c3ncc(-c4cnc(N5CCOCC5)nc4)cc23)c1F`, the solubility result in series [1] was “Insoluble”; in series [2], “Insoluble”; in series [3], “Soluble”; in series [4] it was “Insoluble”.

As for `C#Cc1cnc2[nH]cc(C(=O)c3c(F)ccc(NS(=O)(=O)CCC)c3F)c2c1`, the solubility result in series [1], in series [2], in series [3] and in series [4] was “Insoluble” throughout.

In the case of `COc1ncc(-c2cnc3[nH]cc(C(=O)c4c(F)ccc(NS(=O)(=O)c5cccc(F)c5)c4F)c3c2)cn1`, the solubility result is on record as “Soluble” in series [1], “Insoluble” in series [2], “Insoluble” in series [3] and “Insoluble” in series [4].

For the molecule `COc1ncc(-c2cnc3[nH]cc(C(=O)c4c(F)ccc(NS(=O)(=O)c5c(F)cccc5F)c4F)c3c2)cn1`, the solubility result was “Soluble” in series [1], “Insoluble” in series [2], “Insoluble” in series [3] and “Insoluble” in series [4].

Regarding `Cc1cnc2[nH]cc(C(=O)c3c(F)ccc(NS(=O)(=O)c4c(F)cccc4F)c3F)c2c1`, the solubility entry in series [1] is “Soluble”; in series [2], “Insoluble”; in series [3], “Soluble”; in series [4], “Soluble”.

As for `CCCS(=O)(=O)Nc1ccc(F)c(C(=O)c2c[nH]c3ncc(-c4ccc(OCCN5CCCC5)nc4)cc23)c1F`, the solubility entry is on record as “Soluble” in series [1], “Soluble” in series [2], “Insoluble” in series [3] and “Insoluble” in series [4].

Consider `CCCS(=O)(=O)Nc1ccc(F)c(C(=O)c2c[nH]c3ncc(-c4ccc(C(=O)NCC)nc4)cc23)c1F`, for which the solubility result in series [1], in series [2], in series [3] and in series [4] was “Insoluble” each time.

For `CCCS(=O)(=O)Nc1ccc(F)c(C(=O)c2c[nH]c3ncc(-c4cncc(S(C)(=O)=O)c4)cc23)c1F`, the solubility result in series [1] is “Soluble”; in series [2] it was “Insoluble”; in series [3] it was “Soluble”; in series [4] it was “Insoluble”.

On to `CCCS(=O)(=O)Nc1ccc(F)c(C(=O)c2c[nH]c3ncc(-c4ccc(N5CCCC5)nc4)cc23)c1F`, for which the solubility entry in series [1], in series [2], in series [3] and in series [4] was “Insoluble” throughout.

Regarding `CCCS(=O)(=O)Nc1ccc(F)c(C(=O)c2c[nH]c3ncc(-c4ccc(N(C)C)nc4)cc23)c1F`, the solubility result in series [1] is “Soluble”; in series [2], “Insoluble”; in series [3] it was “Soluble”; in series [4], “Soluble”.

As to `O=C(c1c(F)ccc(NS(=O)(=O)c2cccc(F)c2)c1F)c1c[nH]c2nccc(Cl)c12`, the solubility result in series [1] is “Soluble”; in series [2] it was “Soluble”; in series [3] it was “Insoluble”; in series [4], “Soluble”.

With `CCCS(=O)(=O)Nc1ccc(F)c(C(=O)c2c[nH]c3ncc(-c4cncnc4)cc23)c1F`, the solubility result in series [1], in series [2], in series [3] and in series [4] was “Soluble” in each case.

Regarding `CCCS(=O)(=O)Nc1ccc(F)c(C(=O)c2c[nH]c3ncc(-c4ccc(NC(C)=O)nc4)cc23)c1F`, the solubility entry in series [1] is reported as “Insoluble”; in series [2], “Insoluble”; in series [3] it was “Soluble”; in series [4] it was “Insoluble”.

For `O=C(c1c(F)ccc(NS(=O)(=O)c2cc(F)ccc2F)c1F)c1c[nH]c2nccc(Cl)c12`, the solubility result is “Soluble” in series [1], “Soluble” in series [2], “Insoluble” in series [3] and “Soluble” in series [4].

In the case of `CCCS(=O)(=O)Nc1ccc(F)c(C(=O)c2c[nH]c3ncc(-c4cnc(C)nc4)cc23)c1F`, the solubility entry in series [1], in series [2], in series [3] and in series [4] was “Soluble” each time.

Consider `N#Cc1cnc2[nH]cc(C(=O)c3cccc(NS(=O)(=O)c4cccc(F)c4)c3F)c2c1`, for which the solubility result in series [1] is “Soluble”; in series [2] it was “Insoluble”; in series [3], “Insoluble”; in series [4] it was “Soluble”.
